IC50 and Activity data for 3 compounds are collected here from ChEMBL document CHEMBL4002561, “Discovery of resveratrol derivatives as novel LSD1 inhibitors: Design, synthesis and their biological evaluation” (Eur J Med Chem, 2017).

Calls of active or inactive are those of the source. The rule behind the calls is not given here.

For test [1], the target named is Lysine-specific histone demethylase 1A (Homo sapiens, UniProt O60341).
Description: Inhibition of recombinant full length LSD1 (unknown origin) expressed in Escherichia coli BL21 (DE) using H3K4me2 substrate by fluorescence assay
The test system of the next test is MGC-803. As to the kind of experiment: Effect on LSD1 expression in human MGC803 cells up to 2.5 uM after 5 days by DAPI staining based immunofluorescence assay. It is filed as functional, cell-based.

`Oc1ccc(/C=C/c2cc(O)cc(O)c2)cc1` [RESVERATROL]: the IC50 in test [1] was 10.2 µM.
For the compound `N/C(=N\O)c1cccc(/C=C/c2cc(O)c(O)cc2Br)c1`, the outcome in the test on MGC-803 was inactive.
Consider `N/C(=N\O)c1ccc(/C=C/c2cc(O)c(O)cc2Br)cc1`, for which the result in the test on MGC-803 was inactive.
